Laboratory results from patent publication US20110015067A1, “Herbicidal Compositions Comprising Pyroxasulfone” (BASF SE, priority 2008, published 2011).

Legend:
Type in all cases: in vivo
[1] = tested on: PANDI (Panicum dichotomiflorum); test: pre-emergence greenhouse test; conditions: pre-emergence
Excerpt: (§1) For the pre-emergence treatment, directly after sowing the active compounds, which had been suspended or emulsified in water, were applied by means of finely distributed nozzles. The containers were irrigated gently to promote germination and growth and subsequently covered with transparent plastic hoods until plant had rooted. This cover caused uniform germination of the tests plants, unless this was adversely affected by active compounds.
(§2) The respective herbicides A and/or safener were formulated as 10% by weight strength suspension concentrate and introduced to the spray liquor with the amount of solvent system used for applying the active compound. Herbicide B and/or safener were used as commercially available formulations and introduced to the spray liquor with the amount of solvent system used for applying the active compound. In the examples, the solvent used was water.
(§3) The test period extended over 20 days. During this time, the plants were tended, and their response to the treatments with active compound was evaluated.
(§4) In the following experiments, the herbicidal activity for the individual herbicide compounds (solo application) and of the mixture was assessed 8 days after treatment (8 DAT) and/or 20 days after treatment (20 DAT).
(§5) The evaluation for the damage caused by the chemical compositions was carried out using a scale from 0 to 100%, compared to the untreated control plants. Here, 0 means no damage and 100 means complete destruction of the plants.

SOLNI (Solanum nigrum) = test: pre-emergence greenhouse test; conditions: for observed activity in % destruction: pre-emergence
Excerpt: as §1, §2, §3, §4, §5

SETVI (Setaria viridis) = test: pre-emergence greenhouse test
Excerpt: as §1, §2, §3, §4, §5

ERBVI = test: pre-emergence greenhouse test; conditions: ERBVI pre-emergence 15 g ai/ha
Excerpt: as §1, §2, §3, §4, §5

[2] = tested on: AMARE (Amaranthus retroflexus); test: pre-emergence greenhouse test; conditions: pre-emergence
Excerpt: as §1, §2, §3, §4, §5

PHBPU (Ipomoea purpurea) = test: pre-emergence greenhouse test; conditions: for observed activity in % destruction: pre-emergence, 3.75 g ai/ha
Excerpt: as §1, §2, §3, §4, §5

[3] = tested on: COMBE (Commelina benghalensis); test: pre-emergence greenhouse test; conditions: for observed activity in % destruction: pre-emergence
Excerpt: as §1, §2, §3, §4, §5

[4] = tested on: BRAPL (Brachiaria plantaginea); test: pre-emergence greenhouse test; conditions: for observed activity in % destruction: pre-emergence, 15 g ai/ha
Excerpt: as §1, §2, §3, §4, §5

[5] = tested on: LOLMU (Lolium multiflorum); test: pre-emergence greenhouse test; conditions: for observed activity in % destruction: pre-emergence
Excerpt: as §1, §2, §3, §4, §5

[6] = tested on: ALOMY (Alopecurus myosuroides); test: pre-emergence greenhouse test; conditions: for observed activity in % destruction: pre-emergence, 15 g ai/ha
Excerpt: as §1, §2, §3, §4, §5

[7] = tested on: ECHCG (Echinochloa crus-galli); test: pre-emergence greenhouse test; conditions: for observed activity in % destruction: pre-emergence
Excerpt: as §1, §2, §3, §4, §5

[8] = tested on: ABUTH (Abutilon theophrasti); test: pre-emergence greenhouse test; conditions: pre-emergence, 7.5 g ai/ha
Excerpt: as §1, §2, §3, §4, §5

[9] = tested on: MERAN (Mercurialis annua); test: post-emergence greenhouse test; conditions: 7.5 g ai/ha
Excerpt: (§6) For the post-emergence treatment, the test plants were first grown to a height of 3 to 20 cm, depending on the plant habit, and only then treated. Here, the herbicidal compositions were suspended or emulsified in water as distribution medium and sprayed using finely distributing nozzles.
as §2, §3, §4, §5

[10] = tested on: ALOMY (Alopecurus myosuroides); test: post-emergence greenhouse test; conditions: 3.75 g ai/ha
Excerpt: as §6, §2, §3, §4, §5

[11] = tested on: CHEAL (Chenopodium album); test: post-emergence greenhouse test; conditions: 15 g ai/ha
Excerpt: as §6, §2, §3, §4, §5

Cc1cnc(C2=NC(=O)C(C)(C(C)C)N2)c(C(=O)O)c1 (stereo not drawn) [imazapic]
observed activity in % destruction ([1]; 3.75 g ai/ha, 8 DAT): 0% | observed activity in % destruction ([1]; 3.75 g ai/ha, 20 DAT): 80% | observed activity in % destruction ([1]; 7.5 g ai/ha, 8 DAT): 30% | observed activity in % destruction ([1]; 7.5 g ai/ha, 20 DAT): 90% | observed activity in % destruction ([1]; 15 g ai/ha, 8 DAT): 50% | observed activity in % destruction ([1]; 15 g ai/ha, 20 DAT): 95% | observed % destruction 20 DAT (SOLNI (Solanum nigrum); SOLNI pre-emergence 3.75 g ai/ha): 70% | observed % destruction 20 DAT (SOLNI (Solanum nigrum); SOLNI pre-emergence 7.5 g ai/ha): 85% | observed % destruction 20 DAT (SOLNI (Solanum nigrum); SOLNI pre-emergence 15 g ai/ha): 90% | observed activity in % destruction (SOLNI (Solanum nigrum); 3.75 g ai/ha, 8 DAT): 20% | observed activity in % destruction (SOLNI (Solanum nigrum); 3.75 g ai/ha, 20 DAT): 70% | observed activity in % destruction (SOLNI (Solanum nigrum); 7.5 g ai/ha, 8 DAT): 40% | observed activity in % destruction (SOLNI (Solanum nigrum); 7.5 g ai/ha, 20 DAT): 85% | observed activity in % destruction (SOLNI (Solanum nigrum); 15 g ai/ha, 8 DAT): 50% | observed activity in % destruction (SOLNI (Solanum nigrum); 15 g ai/ha, 20 DAT): 90% | observed % destruction 20 DAT (SETVI (Setaria viridis); SETVI pre-emergence 3.75 g ai/ha): 75% | observed % destruction 20 DAT (SETVI (Setaria viridis); SETVI pre-emergence 7.5 g ai/ha): 90% | observed % destruction 20 DAT (SETVI (Setaria viridis); SETVI pre-emergence 15 g ai/ha): 95% | observed % destruction 20 DAT (ERBVI): 65% | observed activity in % destruction ([2]; 3.75 g ai/ha, 8 DAT): 30% | observed activity in % destruction ([2]; 3.75 g ai/ha, 20 DAT): 55% | observed activity in % destruction ([2]; 7.5 g ai/ha, 8 DAT): 50% | observed activity in % destruction ([2]; 7.5 g ai/ha, 20 DAT): 75% | observed activity in % destruction ([2]; 15 g ai/ha, 8 DAT): 50% | observed activity in % destruction ([2]; 15 g ai/ha, 20 DAT): 90% | observed % destruction 20 DAT (PHBPU (Ipomoea purpurea); PHBPU pre-emergence 3.75 g ai/ha): 25% | observed activity in % destruction (PHBPU (Ipomoea purpurea); 8 DAT): 30% | observed activity in % destruction (PHBPU (Ipomoea purpurea); 20 DAT): 25% | observed % destruction 20 DAT ([3]; COMBE pre-emergence 3.75 g ai/ha): 30% | observed % destruction 20 DAT ([3]; COMBE pre-emergence 7.5 g ai/ha): 40% | observed activity in % destruction ([3]; 3.75 g ai/ha, 8 DAT): 0% | observed activity in % destruction ([3]; 3.75 g ai/ha, 20 DAT): 30% | observed activity in % destruction ([3]; 7.5 g ai/ha, 8 DAT): 20% | observed activity in % destruction ([3]; 7.5 g ai/ha, 20 DAT): 40% | observed % destruction 20 DAT ([4]; BRAPL pre-emergence 15 g ai/ha): 85% | observed activity in % destruction ([4]; 8 DAT): 30% | observed activity in % destruction ([4]; 20 DAT): 85% | observed % destruction 20 DAT ([5]; LOLMU pre-emergence 3.75 g ai/ha): 40% | observed % destruction 20 DAT ([5]; LOLMU pre-emergence 7.5 g ai/ha): 45% | observed % destruction 20 DAT ([5]; LOLMU pre-emergence 15 g ai/ha): 65% | observed activity in % destruction ([5]; 3.75 g ai/ha, 8 DAT): 0% | observed activity in % destruction ([5]; 3.75 g ai/ha, 20 DAT): 40% | observed activity in % destruction ([5]; 7.5 g ai/ha, 8 DAT): 0% | observed activity in % destruction ([5]; 7.5 g ai/ha, 20 DAT): 45% | observed activity in % destruction ([5]; 15 g ai/ha, 8 DAT): 30% | observed activity in % destruction ([5]; 15 g ai/ha, 20 DAT): 65% | observed % destruction 20 DAT ([6]; ALOMY pre-emergence 15 g ai/ha): 80% | observed activity in % destruction ([6]; 8 DAT): 40% | observed activity in % destruction ([6]; 20 DAT): 80% | observed % destruction 20 DAT ([7]; ECHCG pre-emergence 7.5 g ai/ha): 60% | observed % destruction 20 DAT ([7]; ECHCG pre-emergence 15 g ai/ha): 90% | observed activity in % destruction ([7]; 7.5 g ai/ha, 8 DAT): 30% | observed activity in % destruction ([7]; 7.5 g ai/ha, 20 DAT): 60% | observed activity in % destruction ([7]; 15 g ai/ha, 8 DAT): 65% | observed activity in % destruction ([7]; 15 g ai/ha, 20 DAT): 90% | observed activity in % destruction ([8]; 8 DAT): 20% | observed activity in % destruction ([8]; 20 DAT): 75% | observed activity in % destruction ([9]; 8 DAT): 20% | observed activity in % destruction ([9]; 20 DAT): 0% | observed activity in % destruction ([10]; 8 DAT): 35% | observed activity in % destruction ([10]; 20 DAT): 30% | observed activity in % destruction ([11]; 8 DAT): 20% | observed activity in % destruction ([11]; 20 DAT): 30%
